Experiment [1] concerns Human T-lymphoblastic leukemia cell line CEM. Nature of the experiment: In vitro cytotoxic activity, Calcein AM assay, CEM. The experiment is classed as cell-based. To be noted: 72 hours. The method, boiled down: (§1)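 Cells seeded at 10^4 per well, pre-incubated 24 h at 37 °C/5% CO2, then exposed 72 h to six 4-fold dilutions of compound (top well concentration usually 166.7 μM) in duplicate. Viability read by Calcein AM fluorescence after 1 h; GI50 taken from dose-response curves.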

In experiment [2] the test system is human erythroleukaemia K562. The experiment in a line: In vitro cytotoxic activity, Calcein AM assay, K-562. The experiment is classed as cell-based. To be noted: 72 hours, read-out: IC 50 K-562. The method, boiled down: as §1
The next experiment deals with promyelocytic HL-60. The experiment in a line: In vitro cytotoxic activity, Calcein AM assay, HL60. The experiment is classed as cell-based, human. To be noted: 72 hours, read-out: IC 50 HL60. The method, boiled down:
as §1

Experiment [3] concerns breast carcinoma cell lines MCF-7. The experiment in a line: In vitro cytotoxic activity, Calcein AM assay, MCF7. As to conditions: 72 hours, read-out: IC 50 MCF7. The experiment is classed as cell-based, human. In short, it runs like this: as §1
The next experiment relates to mouse fibroblasts NIH3T3. Nature of the experiment: In vitro cytotoxic activity, Calcein AM assay, NIH-3T3. As to conditions: 72 hours, read-out: IC 50 NIH-3T3. The experiment is classed as cell-based. The method, boiled down:
as §1

Experiment [4] concerns Triticum aestivum cv. Hereward. Nature of the experiment: Senescence inhibition on winter wheat leaf segments (chlorophyll retention). The format is in vivo. To be noted: for Concentration with highest activity: chlorophyll retention in excised wheat leaf tips, 96 h dark; for Activity (%) [10^−4 mol · l^−1 BAP = 100%]: chlorophyll retention, at concentration with highest activity. In short, it runs like this: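 Tip segments of the first leaf from 7-day wheat seedlings held, basal ends down, in cytokinin solutions (10^−8M to 10^−4M) for 96 h at 25° C in darkness. Chlorophyll extracted in 80% ethanol at 80° C, read at 665 nm; activity at best concentration given relative to 10^−4 M BAP (100%), means of five replicates.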

Experiment [5] relates to Amaranthus caudatus cotyledon/hypocotyl explants. Nature of the experiment: Amaranthus bioassay (betacyanin content). The experiment is classed as in vivo. To be noted: for Concentration with highest activity: 48 h dark; for Activity (%) [10^−5 mol · l^−1 BAP = 100%]: at concentration with highest activity. The method, boiled down:
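Surface-sterilised Amaranthus caudatus var. atropurpurea seeds were germinated 72 h at 25° C. in darkness, then de-rooted. Cotyledon/hypocotyl explants (20 per dish) were incubated under green safe light on filter paper with 1 ml medium of 10 μmol NA2HPO4-KH2PO4, pH 6.8, 5 μmol tyrosine and cytokinin (10^-8M to 10^-4M) for 48 h at 25° C. in darkness. Betacyanin was extracted in […] acetic acid and measured by absorbance at 537 nm and 620 nm.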

The next experiment deals with HOS. The experiment in a line: In vitro cytotoxic activity, Calcein AM assay, HOS. The format is cell-based. To be noted: 72 hours.

Results on 13 compounds are retold here after patent publication US8119614B2, “Substitution derivatives of N6-benzyladenosine, methods of their preparation, their use for preparation of drugs, cosmetic preparations and growth regulators, pharmaceutical preparations, cosmetic preparations and growth regulators containing these compounds” (Ustav Experimentalni Botaniky Akademie Ved Ceske Republiky, priority 2002, dated 2012).

SMILES strings stand for the structures.

For the compound `OC[C@H]1O[C@@H](n2cnc3c(NCc4ccccc4Cl)ncnc32)[C@H](O)[C@@H]1O` [2-chlorobenzylamino, 6-(2-chlorobenzylamino)purine riboside], the IC50 in experiment [1] is 14.5 µM; in experiment [2], 64 µM; with promyelocytic HL-60, 1.6 µM; in experiment [3] it was over 167 µM; with mouse fibroblasts NIH3T3 it was over 167 µM; with HOS it was over 167 µM. Moreover, the results for the “Concentration with highest activity” value in experiment [4] and in experiment [5] were 10^−4 mol · l^−1 and 10^−5 mol · l^−1, respectively. For the same compound, the “Activity (%) [10^−4 mol · l^−1 BAP = 100%]” value in experiment [4] stood at 119 ± 9%. Moreover, the “Activity (%) [10^−5 mol · l^−1 BAP = 100%]” value in experiment [5] is reported as 113 ± 7%.
On to `OC[C@H]1O[C@@H](n2cnc3c(NCc4ccccc4F)ncnc32)[C@H](O)[C@@H]1O` [2-fluorobenzylamino, 6-(2-fluorobenzylamino)purine riboside], for which the IC50 was 4.6 µM in experiment [1]; 33.2 µM in experiment [2]; 3.2 µM in the experiment on promyelocytic HL-60; over 167 µM in experiment [3]; over 167 µM with HOS. Further, the “Concentration with highest activity” value in experiment [4] and in experiment [5] was 10^−4 mol · l^−1 in each case. Further, the “Activity (%) [10^−4 mol · l^−1 BAP = 100%]” value in experiment [4] was 118 ± 19%. For the same compound, the “Activity (%) [10^−5 mol · l^−1 BAP = 100%]” value in experiment [5] worked out at 96 ± 2%.
For `COc1cccc(CNc2ncnc3c2ncn3[C@@H]2O[C@H](CO)[C@@H](O)[C@H]2O)c1O` [2-hydroxy-3-methoxybenzylamino, 6-(2-hydroxy-3-methoxybenzylamino)purine riboside], the IC50 was 0.3 µM in experiment [1]; 19.2 µM in experiment [2]; 0.15 µM in the experiment on promyelocytic HL-60; 27 µM in experiment [3]; over 167 µM with mouse fibroblasts NIH3T3; over 167 µM in the experiment with HOS. The “Concentration with highest activity” value in experiment [4] and in experiment [5] was 10^−4 mol · l^−1 throughout. Besides, the “Activity (%) [10^−4 mol · l^−1 BAP = 100%]” value in experiment [4] came to 30 ± 8%. The “Activity (%) [10^−5 mol · l^−1 BAP = 100%]” value in experiment [5] amounted to 18 ± 5%.
Consider `COc1ccccc1CNc1ncnc2c1ncn2[C@@H]1O[C@H](CO)[C@@H](O)[C@H]1O` [2-methoxybenzylamino, 6-(2-methoxybenzylamino)purine riboside], for which the IC50 is 3.2 µM in experiment [1]; 11.2 µM in experiment [2]; 2.3 µM with promyelocytic HL-60; over 167 µM in experiment [3]; over 167 µM in the experiment on mouse fibroblasts NIH3T3; 21.2 µM in the experiment on HOS. Also, the figures for the “Concentration with highest activity” value in experiment [4] and in experiment [5] were 10^−4 mol · l^−1 and 10^−5 mol · l^−1, respectively. For the same compound, the “Activity (%) [10^−4 mol · l^−1 BAP = 100%]” value in experiment [4] was 198 ± 12%. Further, in experiment [5], the “Activity (%) [10^−5 mol · l^−1 BAP = 100%]” value was 86 ± 4%.
On to `Cc1ccccc1CNc1ncnc2c1ncn2[C@@H]1O[C@H](CO)[C@@H](O)[C@H]1O` [2-methylbenzylamino, 6-(2-methylbenzylamino)purine riboside], for which the IC50 in experiment [1] is 14 µM; in experiment [2], over 167 µM; in the experiment on promyelocytic HL-60, 3.3 µM; in experiment [3], over 167 µM; in the experiment with mouse fibroblasts NIH3T3, over 167 µM; in the experiment on HOS, over 167 µM. For the same compound, the “Concentration with highest activity” value is given as 10^−4 mol · l^−1 in experiment [4] and 10^−5 mol · l^−1 in experiment [5]. For the same compound, the “Activity (%) [10^−4 mol · l^−1 BAP = 100%]” value in experiment [4] was found to be 142 ± 6%. For the same compound, in experiment [5], the “Activity (%) [10^−5 mol · l^−1 BAP = 100%]” value was found to be 105 ± 14%.
For `OC[C@H]1O[C@@H](n2cnc3c(NCc4ccc(Cl)c(Cl)c4)ncnc32)[C@H](O)[C@@H]1O` [3,4-dichlorobenzylamino, 6-(3,4-dichlorobenzylamino)purine riboside], the IC50 was 3 µM in experiment [1]; 6.5 µM in experiment [2]; 1.1 µM with promyelocytic HL-60; 88.8 µM in experiment [3]; over 167 µM in the experiment with mouse fibroblasts NIH3T3; over 167 µM in the experiment on HOS. Besides, the “Concentration with highest activity” value in experiment [4] and in experiment [5] was 10^−4 mol · l^−1 each time. Also, the “Activity (%) [10^−4 mol · l^−1 BAP = 100%]” value in experiment [4] is recorded as 151 ± 29%. Besides, in experiment [5], the “Activity (%) [10^−5 mol · l^−1 BAP = 100%]” value is on record as 68 ± 10%.
In the case of `OC[C@H]1O[C@@H](n2cnc3c(NCc4cccc(Br)c4)ncnc32)[C@H](O)[C@@H]1O` [3-bromobenzylamino, 6-(3-bromobenzylamino)purine riboside], the IC50 is 5 µM in experiment [1]; 19.7 µM in experiment [2]; 8 µM in the experiment on promyelocytic HL-60; over 167 µM in experiment [3]; over 167 µM with mouse fibroblasts NIH3T3; over 167 µM in the experiment with HOS. For the same compound, the “Concentration with highest activity” value in experiment [4] and in experiment [5] was 10^−4 mol · l^−1 each time. In addition, in experiment [4], the “Activity (%) [10^−4 mol · l^−1 BAP = 100%]” value came to 89 ± 10%. The “Activity (%) [10^−5 mol · l^−1 BAP = 100%]” value in experiment [5] is given as 151 ± 16%.
Turning to `OC[C@H]1O[C@@H](n2cnc3c(NCc4cccc(Cl)c4)ncnc32)[C@H](O)[C@@H]1O` [3-chlorobenzylamino, 6-(3-chlorobenzylamino)purine riboside], the IC50 was 1.6 µM in experiment [1]; 30.4 µM in experiment [2]; 0.75 µM with promyelocytic HL-60; over 167 µM in experiment [3]; over 167 µM in the experiment on mouse fibroblasts NIH3T3; over 167 µM in the experiment with HOS. Besides, the “Concentration with highest activity” value in experiment [4] was 10^−4 mol · l^−1; in experiment [5] it was 10^−5 mol · l^−1. Moreover, the “Activity (%) [10^−4 mol · l^−1 BAP = 100%]” value in experiment [4] is given as 72 ± 8%. The “Activity (%) [10^−5 mol · l^−1 BAP = 100%]” value in experiment [5] was determined as 139 ± 12%.
In the case of `OC[C@H]1O[C@@H](n2cnc3c(NCc4cccc(F)c4)ncnc32)[C@H](O)[C@@H]1O` [3-fluorobenzylamino, 6-(3-fluorobenzylamino)purine riboside], the IC50 was 4 µM in experiment [1]; 7 µM in experiment [2]; 0.92 µM in the experiment on promyelocytic HL-60; 16.6 µM in experiment [3]; over 167 µM with mouse fibroblasts NIH3T3; over 167 µM in the experiment on HOS. For the same compound, the “Concentration with highest activity” value in experiment [4] and in experiment [5] was 10^−4 mol · l^−1 each time. Further, the “Activity (%) [10^−4 mol · l^−1 BAP = 100%]” value in experiment [4] amounted to 220 ± 16%. For the same compound, the “Activity (%) [10^−5 mol · l^−1 BAP = 100%]” value in experiment [5] came to 92 ± 6%.
Take `COc1cccc(CNc2ncnc3c2ncn3[C@@H]2O[C@H](CO)[C@@H](O)[C@H]2O)c1` [3-methoxybenzylamino, 6-(3-methoxybenzylamino)purine riboside]: the IC50 in experiment [1] was 7.6 µM; in experiment [2], over 167 µM; in the experiment with promyelocytic HL-60, 4.9 µM; in experiment [3], over 167 µM; in the experiment with mouse fibroblasts NIH3T3, over 167 µM; in the experiment with HOS, over 167 µM. For the same compound, the “Concentration with highest activity” value in experiment [4] and in experiment [5] was 10^−4 mol · l^−1 throughout. Further, the “Activity (%) [10^−4 mol · l^−1 BAP = 100%]” value in experiment [4] is on record as 209 ± 8%. For the same compound, the “Activity (%) [10^−5 mol · l^−1 BAP = 100%]” value in experiment [5] stood at 98 ± 10%.
For `Cc1cccc(CNc2ncnc3c2ncn3[C@@H]2O[C@H](CO)[C@@H](O)[C@H]2O)c1` [3-methylbenzylamino, 6-(3-methylbenzylamino)purine riboside], the IC50 in experiment [1] is 19.1 µM; in experiment [2], over 167 µM; with promyelocytic HL-60 it was 6.4 µM; in experiment [3], over 167 µM; in the experiment with mouse fibroblasts NIH3T3, over 167 µM; with HOS it was over 167 µM. The “Concentration with highest activity” value is recorded as 10^−4 mol · l^−1 in experiment [4] and 10^−5 mol · l^−1 in experiment [5]. The “Activity (%) [10^−4 mol · l^−1 BAP = 100%]” value in experiment [4] worked out at 143 ± 9%. Besides, the “Activity (%) [10^−5 mol · l^−1 BAP = 100%]” value in experiment [5] is 103 ± 16%.
As for `OC[C@H]1O[C@@H](n2cnc3c(NCc4ccc(Cl)cc4)ncnc32)[C@H](O)[C@@H]1O` [4-chlorobenzylamino, 6-(4-chlorobenzylamino)purine riboside], the IC50 in experiment [1] was 6.5 µM; in experiment [2], 16.1 µM; with promyelocytic HL-60 it was 5.3 µM; in experiment [3], over 167 µM; in the experiment on mouse fibroblasts NIH3T3 it was over 167 µM; with HOS, over 167 µM. The “Concentration with highest activity” value in experiment [4] was 10^−4 mol · l^−1; in experiment [5], 10^−5 mol · l^−1. In experiment [4], the “Activity (%) [10^−4 mol · l^−1 BAP = 100%]” value is given as 104 ± 6%. Also, the “Activity (%) [10^−5 mol · l^−1 BAP = 100%]” value in experiment [5] is reported as 35 ± 9%.
Regarding `OC[C@H]1O[C@@H](n2cnc3c(NCc4ccc(F)cc4)ncnc32)[C@H](O)[C@@H]1O` [4-fluorobenzylamino, 6-(4-fluorobenzylamino)purine riboside], the IC50 was 1.5 µM in experiment [1]; 6.4 µM in experiment [2]; 0.86 µM in the experiment on promyelocytic HL-60; 14 µM in experiment [3]; over 167 µM with mouse fibroblasts NIH3T3; 20 µM in the experiment on HOS. For the same compound, the “Concentration with highest activity” value in experiment [4] was 10^−4 mol · l^−1; in experiment [5], 10^−5 mol · l^−1. The “Activity (%) [10^−4 mol · l^−1 BAP = 100%]” value in experiment [4] was determined as 148 ± 2%. In addition, the “Activity (%) [10^−5 mol · l^−1 BAP = 100%]” value in experiment [5] turned out to be 71 ± 4%.
